According to PubChem BioAssay (NCI):
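Cells were grown in 96-well plates and exposed to each compound for 48 hours at five concentrations; endpoints were interpolated linearly between bracketing concentrations, or set to the highest concentration if not reached. GI50 is the concentration that inhibits growth by half. TGI is the concentration that stops growth completely.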

How the values were obtained:
Assay in all cases: NCI anticancer screen, dose series, 48 h
[1] = tested on: OVCAR-5 ovarian
[2] = tested on: UACC-62 melanoma
[3] = tested on: IGROV1 ovarian
[4] = tested on: CCRF-CEM leukemia
[5] = tested on: HCC-2998 colon
[6] = tested on: NCI-H460 lung
[7] = tested on: SF-295 CNS
[8] = tested on: HOP-92 NSCLC
[9] = tested on: OVCAR-8 ovarian

Row | Structure (SMILES) | TGI [1] [µM] | TGI [2] [µM] | TGI [3] [µM] | TGI [4] [µM] | TGI [5] [µM] | TGI [6] [µM] | TGI [7] [µM] | TGI [8] [µM] | TGI [9] [µM] | GI50 [1] [µM] | GI50 [2] [µM] | GI50 [3] [µM] | GI50 [4] [µM] | GI50 [6] [µM] | GI50 [7] [µM] | GI50 [8] [µM] | GI50 [5] [µM] | GI50 [9] [µM]
1 | COc1ccc(OC)c(/C=C/NC=O)c1 | > 100 | > 100 | > 100 | > 100 | > 100 | > 100 | > 100 | > 100 | > 100 |  |  |  |  |  |  |  |  | 
2 | CNC=O.[O]=[Ge].[O]=[Ge].[O]=[Ge].[O]=[Ge][OH].[O]=[Ge][OH] | > 100 | > 100 | > 100 | > 100 | > 100 | > 100 | > 100 | > 100 | > 100 |  |  |  |  |  |  |  |  | 
3 | CSc1ccc(/C=C2/C[N+](C)(C)C/C(=C/c3ccc(SC)cc3)C2=O)cc1 | 44 |  |  | 31.5 | 34 |  | 65 | 42.1 |  |  |  |  |  |  |  |  |  | 
4 | COC(=O)C1=C(c2ccc3c(c2)OCO3)O[C@H](c2ccc3c(c2)OCO3)[C@H]1COC(C)=O | > 100 | > 100 | > 100 | > 100 | > 100 | > 100 | > 100 | > 100 | > 100 |  |  |  |  |  |  |  |  | 
5 | CN(C)C(=S)/N=c1\ss/c(=N\C(=S)N(C)C)n1-c1ccc2c(c1)OCO2 | > 100 | > 100 | > 100 |  | > 100 |  | > 100 |  | > 100 |  |  |  |  |  |  |  |  | 
6 | Cc1cccc(N2C(=O)C(Cl)=C(Cl)C2=O)c1 | > 100 | > 100 | > 100 | > 61 | > 100 | > 100 | > 100 | > 78.6 | > 100 |  |  |  |  |  |  |  |  | 
7 | O=C(/C=C/c1ccccc1Cl)c1ccccc1Cl | 46.4 | 36.7 | 33.3 | 44.9 | 39.1 | 36 | 51.2 | 77.2 | 33.6 |  |  |  |  |  |  |  |  | 
8 | CSc1nc(NC2OC(COC(C)=O)C(OC(C)=O)C(OC(C)=O)C2OC(C)=O)c2c(OC(C)=O)c(C)c(=O)oc2n1 (stereo unspecified) | > 100 | > 100 | > 100 | > 100 | > 100 | > 100 | > 100 | > 100 | > 100 |  |  |  |  |  |  |  |  | 
9 | CCc1cccc(C)c1NC(C)=O | > 100 | > 100 | > 100 | > 100 | > 100 | > 100 | > 100 |  | > 100 |  |  |  |  |  |  |  |  | 
10 | O=S(O)CCCCSSCCCCSSCCCCS(=O)O | > 100 | 55.3 | > 100 | 64.6 | > 100 | > 100 | > 100 |  | > 100 |  |  |  |  |  |  |  |  | 
11 | C#CC[C@]12CC(=O)CC[C@H]1CC(=O)C2 |  | > 100 | > 100 | > 100 | > 100 | > 100 |  |  | > 100 |  |  |  |  |  |  |  |  | 
12 | CCCCn1c(-c2ccc(C(=O)O/N=C(\N)c3ccc(OC)cc3)cc2)nc(-c2ccccc2)c1-c1ccccc1 | > 100 | 4.58 | 1.16 | 2.76 |  | 3.87 | 2.97 | 2.41 |  | 2.35 | 1.88 | 0.334 | 0.556 | 1.84 | 1.53 | 0.816 |  | 
13 | COc1ccc(C(=O)O)c(Cc2cccc3ccccc23)c1 | > 100 | > 100 | > 100 | > 100 | > 100 | > 100 | > 100 |  | > 100 |  |  |  |  |  |  |  |  | 
14 | Nc1c(-c2ccc(Br)cc2)[n+]([O-])c2ccccc2[n+]1[O-] | > 100 |  | > 100 |  |  | > 100 | > 100 | > 100 | > 100 |  |  |  |  |  |  |  |  | 
15 | CCOC(=O)NC(=O)c1cn(CCCOC(=O)NCCCCCCNC(=O)OCCCn2c(=O)c(C(=O)NC(=O)OCC)cn(C)c2=O)c(=O)n(C)c1=O | > 100 | > 100 | > 100 | > 100 | > 100 | > 100 |  | > 100 | > 100 |  |  |  |  |  |  |  |  | 
16 | NCCCNCCSSCCCCS(=O)O | > 100 | 34.8 | > 100 |  | > 100 | > 100 | > 100 | > 100 | > 100 |  |  |  |  |  |  |  |  | 
17 | Cc1ccc(N=NC(C(=O)c2ccccc2)C(=O)c2ccccc2)cc1 | 58 | 60.8 | > 100 | 69.4 | > 100 |  | > 100 | 41.5 | > 100 |  |  |  |  |  |  |  |  | 
18 | Cc1cc(NS(=O)(=O)c2ccc(NC(=O)c3cccc4c(=O)c5ccccc5[nH]c34)cc2)no1 | > 100 | 66.8 | > 100 | 94.2 | > 100 | > 100 |  | > 100 | 67.4 |  |  |  |  |  |  |  |  | 
19 | CC(C)=[CH][Sb]([Br])([CH]=C(C)C)([CH]=C(C)C)[CH]=C(C)C |  | > 100 | 66.3 | > 100 | > 100 | 54.4 | 53.4 |  | > 100 |  | 11.1 | 5.57 | 4.8 | 16.4 | 17.3 |  | 26 | 23
